Measurements published in US9617216B2, “Antifungal oxodihydropyridinecarbohydrazide derivative” (Daewoong Pharmaceutical Co., Ltd., priority 2013, dated 2017).
≈ marks a conversion by molar mass, not a printed value.

Tested on: Candida albicans
Experiment: In vitro antifungal activity test (MIC), Candida albicans
Assay type: cell-based
Conditions: Candida albicans; concentration at which growth is inhibited by 80% vs negative control; 35° C., 24 hours, RPMI 1640, alama blue
Experimental: The antifungal activities of the compounds of the present invention were evaluated using Candida albicans as yeast fungus, and Aspergillus fumigatus as a filamentous fungus. The above fungi used were all purchased from American Type Culture Collection (ATCC). The strains used in the experiment were inoculated into a Sabouraud dextrose agar medium, and then cultured at 35° C. for a sufficient period of time, e.g., 24 hours for Candida albicans, and about 7 days for Aspergillus fumigatus. As for Candida albicans, about 5 to 7 single colonies were taken from the cultured medium, sufficiently suspended in 1 ml of 0.85% sterile saline solution, and adjusted to have an optical density of 0.095 to 0.107 at 530 nm. A preparation of a strain diluent was diluted in Roswell park memorial institute (RPMI) 1640 medium at a 1:10 ratio, and the resultant was diluted again at a 1:100 ratio to obtain an inoculation preparation for Candida albicans with a concentration of 1.0×10^3 to 5.0×10^3 CFU/mL. As for Aspergillus fumigatus, the cultured Sabouraud dextrose agar was added with 1 mL of 0.2% Tween 20 diluted with 0.85% sterile saline solution, and then the plate was shaken to detach conidium from the plate. The solution collected from the plate surface was transferred into a sterile tube, and placed at room temperature for 5 minutes to deposit heavy substances. The resulting supernatant was transferred into the sterile tube, sufficiently suspended for about 15 seconds, and prepared a strain diluent with a concentration of 0.4×10^6 to 5.0×10^6 CFU/mL using a hemocytometer. The thus prepared strain diluent was diluted in RPMI 1640 medium at a 1:100 ratio to obtain an inoculation preparation for Aspergillus fumigatus. Candida albicans was cultured at 35° C. for 24 hours and Aspergillus fumigatus was cultured at 35° C. for 48 hours, and the concentrations, at which growth is inhibited by 80% or 50% compared to a negative control group, were determined using alama blue color developing reagent. All experiments were repeated twice for each concentration, and the results of antifungal activities (MIC80 MIC50 μg/mL) are shown in Tables 1 to 2.

First: Cn1cc(C(=O)NNc2ccc(F)cc2)ccc1=O [Example 3, N′-(4-fluorophenyl)-1-methyl-6-oxo-1,6-dihydropyridine-3-carbohydrazide]
Second: Cn1cc(C(=O)NNc2ccc(Cl)cc2)ccc1=O [Example 5, N′-(4-chlorophenyl)-1-methyl-6-oxo-1,6-dihydropyridine-3-carbohydrazide]
The MIC80 of the first is 2-fold higher: 0.1 µg/mL (≈ 0.383 µM) for the first, 0.05 µg/mL (≈ 0.18 µM) for the second.

`Cn1cc(C(=O)NNc2cccc(Cl)c2)ccc1=O` [Example 4, N′-(3-chlorophenyl)-1-methyl-6-oxo-1,6-dihydropyridine-3-carbohydrazide] and `Cn1cc(C(=O)NNc2cccc(C#N)c2)ccc1=O` [Example 6, N′-(3-cyanophenyl)-1-methyl-6-oxo-1,6-dihydropyridine-3-carbohydrazide] are within 1.5-fold of each other in MIC80: 0.11 µg/mL (≈ 0.396 µM) for the first, 0.1 µg/mL (≈ 0.373 µM) for the second.

First: Cn1cc(C(=O)NNc2ccc(C#N)cc2)ccc1=O [Example 7, N′-(4-cyanophenyl)-1-methyl-6-oxo-1,6-dihydropyridine-3-carbohydrazide]
Second: Cn1cc(C(=O)NNc2ccc(C#N)cc2)cc(Cl)c1=O [Example 29, 5-chloro-N′-(4-cyanophenyl)-1-methyl-6-oxo-1,6-dihydropyridine-3-carbohydrazide]
The MIC80 of the first is 1.8-fold higher: 0.84 µg/mL (≈ 3.13 µM) for the first, 0.47 µg/mL (≈ 1.55 µM) for the second.

First: Cn1cc(C(=O)NNc2cccc(C(F)(F)F)c2)ccc1=O [Example 8, 1-methyl-6-oxo-N′-(3-(trifluoromethyl)phenyl)-1,6-dihydropyridine-3-carbohydrazide]
Second: Cn1cc(C(=O)NNc2ccc(C(F)(F)F)cc2)ccc1=O [Example 9, 1-methyl-6-oxo-N′-(4-(trifluoromethyl)phenyl)-1,6-dihydropyridine-3-carbohydrazide]
The MIC80 of the first is 8.1-fold lower: 0.24 µg/mL (≈ 0.771 µM) for the first, 1.95 µg/mL (≈ 6.26 µM) for the second.

First: Cn1cc(C(=O)NNc2ccc(F)c(F)c2)ccc1=O [Example 12, N′-(3,4-difluorophenyl)-1-methyl-6-oxo-1,6-dihydropyridine-3-carbohydrazide]
Second: Cn1cc(C(=O)NNc2ccc(F)c(Cl)c2)ccc1=O [Example 17, N′-(3-chloro-4-fluorophenyl)-1-methyl-6-oxo-1,6-dihydropyridine-3-carbohydrazide]
The MIC80 of the first is 1.8-fold higher: 0.22 µg/mL (≈ 0.788 µM) for the first, 0.12 µg/mL (≈ 0.406 µM) for the second.

Going from `Cn1cc(C(=O)NNc2ccc(Cl)c(Cl)c2)ccc1=O` [Example 14, N′-(3,4-dichlorophenyl)-1-methyl-6-oxo-1,6-dihydropyridine-3-carbohydrazide] to `Cn1cc(C(=O)NNc2ccc(Cl)cc2)cc(Cl)c1=O` [Example 27, 5-chloro-N′-(4-chlorophenyl)-1-methyl-6-oxo-1,6-dihydropyridine-3-carbohydrazide], the MIC80 rises from 0.06 µg/mL (≈ 0.192 µM) to 0.49 µg/mL (≈ 1.57 µM) (8.2-fold).

Compared with `Cn1cc(C(=O)NNc2ccc(F)nc2F)ccc1=O` [Example 19, N′-(2,6-difluoropyridine-3-yl)-1-methyl-6-oxo-1,6-dihydropyridine-3-carbohydrazide], `Cc1nc(F)ccc1NNC(=O)c1ccc(=O)n(C)c1` [Example 20, N′-(6-fluoro-2-methylpyridine-3-yl)-1-methyl-6-oxo-1,6-dihydropyridine-3-carbohydrazide] is 4-fold lower in MIC80: 0.88 µg/mL (≈ 3.14 µM) for the first, 0.22 µg/mL (≈ 0.796 µM) for the second.

First: Cn1cc(C(=O)NNc2cccc(F)c2)c(Cl)cc1=O [Example 22, 4-chloro-N′-(3-fluorophenyl)-1-methyl-6-oxo-1,6-dihydropyridine-3-carbohydrazide]
Second: Cn1cc(C(=O)NNc2ccc(F)cc2)c(Cl)cc1=O [Example 23, 4-chloro-N′-(4-fluorophenyl)-1-methyl-6-oxo-1,6-dihydropyridine-3-carbohydrazide]
The MIC80 of the first is 2-fold lower: 0.23 µg/mL (≈ 0.778 µM) for the first, 0.46 µg/mL (≈ 1.56 µM) for the second.

Compared with `Cn1cc(C(=O)NNc2ccc(F)cc2)cc(Cl)c1=O` [Example 25, 5-chloro-N′-(4-fluorophenyl)-1-methyl-6-oxo-1,6-dihydropyridine-3-carbohydrazide], `Cn1cc(C(=O)NNc2ccc(F)c(F)c2)cc(Cl)c1=O` [Example 31, 5-chloro-N′-(3,4-difluorophenyl)-1-methyl-6-oxo-1,6-dihydropyridine-3-carbohydrazide] is 3.8-fold lower in MIC80: 0.23 µg/mL (≈ 0.778 µM) for the first, 0.06 µg/mL (≈ 0.191 µM) for the second.

Compared with `Cn1cc(C(=O)NNc2cccc(C#N)c2)cc(Cl)c1=O` [Example 28, 5-chloro-N′-(3-cyanophenyl)-1-methyl-6-oxo-1,6-dihydropyridine-3-carbohydrazide], `Cn1cc(C(=O)NNc2ccc(F)cc2F)cc(Cl)c1=O` [Example 30, 5-chloro-N′-(2,4-difluorophenyl)-1-methyl-6-oxo-1,6-dihydropyridine-3-carbohydrazide] is 2.6-fold higher in MIC80: 0.12 µg/mL (≈ 0.396 µM) for the first, 0.31 µg/mL (≈ 0.988 µM) for the second.

First: Cn1cc(C(=O)NNc2cc(F)cc(F)c2)cc(Cl)c1=O [Example 32, 5-chloro-N′-(3,5-difluorophenyl)-1-methyl-6-oxo-1,6-dihydropyridine-3-carbohydrazide]
Second: Cn1cc(C(=O)NNc2cccc(F)c2)cc(-c2ccccn2)c1=O [Example 41, N′-(3-fluorophenyl)-1-methyl-6-oxo-5-(pyridine-2-yl)-1,6-dihydropyridine-3-carbohydrazide]
The MIC80 of the first is 2.3-fold lower: 0.03 µg/mL (≈ 0.0956 µM) for the first, 0.07 µg/mL (≈ 0.207 µM) for the second.

Going from `Cn1cc(C(=O)NNc2cccc(F)c2)c(Nc2ccc(C(F)(F)F)cc2)cc1=O` [Example 35, N′-(3-fluorophenyl)-1-methyl-6-oxo-4-((4-(trifluoromethyl)phenyl)amino)-1,6-dihydropyridine-3-carbohydrazide] to `Cn1cc(C(=O)NNc2ccc(F)cc2)c(Nc2ccc(C(F)(F)F)cc2)cc1=O` [Example 36, N′-(4-fluorophenyl)-1-methyl-6-oxo-4-((4-(trifluoromethyl)phenyl)amino)-1,6-dihydropyridine-3-carbohydrazide], the MIC80 rises from 0.16 µg/mL (≈ 0.381 µM) to 1.31 µg/mL (≈ 3.12 µM) (8.2-fold).

Going from `O=C(NNc1cccc(F)c1)c1ccc(=O)n(-c2ccccc2F)c1` [Example 42, 1-(2-fluorophenyl)-N′-(3-fluorophenyl)-6-oxo-1,6-dihydropyridine-3-carbohydrazide] to `O=C(NNc1cccc(F)c1)c1ccc(=O)n(-c2cccc(F)c2)c1` [Example 43, N′,1-Bis(3-fluorophenyl)-6-oxo-1,6-dihydropyridine-3-carbohydrazide], the MIC80 rises from 0.07 µg/mL (≈ 0.205 µM) to 0.13 µg/mL (≈ 0.381 µM) (1.9-fold).

First: O=C(NNc1cccc(F)c1)c1ccc(=O)n(-c2ccc(F)cc2)c1 [Example 44, N′-(3-fluorophenyl)-1-(4-fluorophenyl)-6-oxo-1,6-dihydropyridine-3-carbohydrazide]
Second: O=C(NNc1ccc(F)cc1)c1ccc(=O)n(-c2cccc(Cl)c2)c1 [Example 47, 1-(3-chlorophenyl)-N′-(4-fluorophenyl)-6-oxo-1,6-dihydropyridine-3-carbohydrazide]
The MIC80 of the first is 4.3-fold lower: 0.13 µg/mL (≈ 0.381 µM) for the first, 0.56 µg/mL (≈ 1.57 µM) for the second.

Compared with `O=C(NNc1ccc(F)cc1)c1ccc(=O)n(-c2ccc(C(F)(F)F)cc2)c1` [Example 45, N′-(4-fluorophenyl)-6-oxo-1-(4-(trifluoromethyl)phenyl)-1,6-dihydropyridine-3-carbohydrazide], `O=C(NNc1ccc(F)cc1)c1ccc(=O)n(-c2cccc(C(F)(F)F)c2)c1` [Example 46, N′-(4-fluorophenyl)-6-oxo-1-(3-(trifluoromethyl)phenyl)-1,6-dihydropyridine-3-carbohydrazide] is 2-fold lower in MIC80: 0.61 µg/mL (≈ 1.56 µM) for the first, 0.31 µg/mL (≈ 0.792 µM) for the second.

First: O=C(NNc1cccc(F)c1)c1ccc(=O)n(Cc2ccc(C(F)(F)F)nc2)c1 [Example 50, N′-(3-fluorophenyl)-6-oxo-1-((6-(trifluoromethyl)pyridine-3-yl)methyl)-1,6-dihydropyridine-3-carbohydrazide]
Second: O=C(NNc1ccc(F)cc1)c1ccc(=O)n(Cc2ccc(C(F)(F)F)nc2)c1 [Example 51, N′-(4-fluorophenyl)-6-oxo-1-((6-(trifluoromethyl)pyridine-3-yl)methyl)-1,6-dihydropyridine-3-carbohydrazide]
The MIC80 of the first is 2-fold lower: 0.08 µg/mL (≈ 0.197 µM) for the first, 0.16 µg/mL (≈ 0.394 µM) for the second.

`O=C(NNc1ccc(F)c(F)c1)c1ccc(=O)n(Cc2ccc(C(F)(F)F)nc2)c1` [Example 52, N′-(3,4-difluorophenyl)-6-oxo-1-((6-(trifluoromethyl)pyridine-3-yl)methyl)-1,6-dihydropyridine-3-carbohydrazide] and `O=C(NNc1cccc(F)c1)c1ccc(=O)n(CCc2ccc(Cl)cc2)c1` [Example 58, 1-(4-chlorophenethyl)-N′-(3-fluorophenyl)-6-oxo-1,6-dihydropyridine-3-carbohydrazide] are the same in MIC80: 0.08 µg/mL (≈ 0.189 µM) for the first, 0.08 µg/mL (≈ 0.207 µM) for the second.

First: O=C(NNc1cccc(F)c1)c1ccc(=O)n(CCN2CCN(c3ccc(C(F)(F)F)cc3)CC2)c1 [Example 55, N′-(3-fluorophenyl)-6-oxo-1-(2-(4-(4-(trifluoromethyl)phenyl)piperazin-1-yl)ethyl)-1,6-dihydropyridine-3-carbohydrazide]
Second: O=C(NNc1ccc(F)cc1)c1ccc(=O)n(CCN2CCN(c3ccc(C(F)(F)F)cc3)CC2)c1 [Example 56, N′-(4-fluorophenyl)-6-oxo-1-(2-(4-(4-(trifluoromethyl)phenyl)piperazin-1-yl)ethyl)-1,6-dihydropyridine-3-carbohydrazide]
The MIC80 of the first is 4-fold lower: 0.2 µg/mL (≈ 0.397 µM) for the first, 0.79 µg/mL (≈ 1.57 µM) for the second.

In the case of `O=C(NNc1cccc(F)c1)c1ccc(=O)n(CCc2cccc(Cl)c2)c1` [Example 57, 1-(3-chlorophenethyl)-N′-(3-fluorophenyl)-6-oxo-1,6-dihydropyridine-3-carbohydrazide], the MIC80 is reported as 0.08 µg/mL (≈ 0.207 µM).
